Source: ChEMBL document CHEMBL4371047, “Effect of α-Methoxy Substitution on the Anti-HIV Activity of Dihydropyrimidin-4(3 H)-ones” (J Med Chem, 2019)

How the values were obtained:
[1] = tested on: Human immunodeficiency virus 1; test: Resistance index, ratio of ID50 for recombinant HIV-1 His-tagged reverse transcriptase p66/p51 K103N mutant to ID50 for recombinant wild type HIV-1 reverse transcriptase His-tagged p66/p51
[2] = tested on: Human immunodeficiency virus 1; test: Resistance index, ratio of EC50 for HIV-1 harboring reverse transcriptase Y188L mutant to EC50 for wild type HIV-1 NL4-3; assay type: functional
[3] = tested on: Human immunodeficiency virus 1; test: Antiviral activity against HIV-1 harboring reverse transcriptase Y188L mutant infected in human MT4 cells assessed as inhibition of virus-induced cytopathic effect after 5 days by MTT assay; assay type: functional, organism-based; conditions: Human immunodeficiency virus 1, MT4, 120 h
[4] = tested on: Human immunodeficiency virus 1; test: Antiviral activity against HIV 1 harboring reverse transcriptase Y181C mutant infected in human MT4 cells assessed as inhibition of virus-induced cytopathic effect after 5 days by MTT assay; assay type: functional, organism-based; conditions: Human immunodeficiency virus 1, MT4, 120 h
[5] = tested on: Human immunodeficiency virus 1; test: Resistance index, ratio of EC50 for HIV-1 harboring reverse transcriptase K103N mutant to EC50 for wild type HIV-1 NL4-3; assay type: functional
[6] = tested on: Human immunodeficiency virus 1; test: Antiviral activity against HIV-1 IRLL98 harboring reverse transcriptase M41L, D67N, Y181C, M184V, R211K, and T215Y mutants infected in human MT4 cells assessed as inhibition of virus-induced cytopathic effect after 5 days by MTT assay; assay type: functional, organism-based; conditions: Human immunodeficiency virus 1, IRLL98, MT4, 120 h
[7] = tested on: Human immunodeficiency virus 1; test: Resistance index, ratio of ID50 for recombinant HIV-1 His-tagged reverse transcriptase p66/p51 L100I mutant to ID50 for recombinant wild type HIV-1 reverse transcriptase His-tagged p66/p51
[8] = tested on: Human immunodeficiency virus 1; test: Antiviral activity against HIV-1 harboring reverse transcriptase K103N mutant infected in human MT4 cells assessed as inhibition of virus-induced cytopathic effect after 5 days by MTT assay; assay type: functional, organism-based; conditions: Human immunodeficiency virus 1, MT4, 120 h
[9] = tested on: Human immunodeficiency virus 1; test: Resistance index, ratio of EC50 for HIV-1 IRLL98 harboring reverse transcriptase M41L, D67N, Y181C, M184V, R211K, and T215Y mutants to EC50 for wild type HIV-1 NL4-3; assay type: functional
[10] = tested on: Human immunodeficiency virus 1; test: Resistance index, ratio of EC50 for HIV-1 harboring reverse transcriptase Y181C mutant to EC50 for wild type HIV-1 NL4-3; assay type: functional
[11] = tested on: Human immunodeficiency virus 1; test: Resistance index, ratio of ID50 for recombinant HIV-1 His-tagged reverse transcriptase p66/p51 Y181I mutant to ID50 for recombinant wild type HIV-1 reverse transcriptase His-tagged p66/p51
[12] = Cytotoxicity against human MT4 cells assessed as reduction in cell viability after 5 days by MTT assay; assay type: cell-based
[13] = tested on: Human immunodeficiency virus 1; test: Antiviral activity against wild type HIV 1 NL4-3 infected in human MT4 cells assessed as inhibition of virus-induced cytopathic effect after 5 days by MTT assay; assay type: functional, organism-based; conditions: Human immunodeficiency virus 1, NL4-3, MT4, 120 h
[14] = Therapeutic index, ratio of CC50 for human MT4 cells to EC50 for HIV-1 NL4-3 infected in human MT4 cells; assay type: toxicity, cell-based; conditions: read-out: Ratio CC50/EC50
[15] = tested on: Human immunodeficiency virus type 1 reverse transcriptase (Human immunodeficiency virus 1), Q72547 [K103N]
Description: Inhibition of recombinant HIV-1 His-tagged reverse transcriptase p66/p51 K103N mutant expressed in Escherichia coli assessed as reduction in [3H]dTTP incorporation using poly(rA)/oligo(dT) as template/primer after 20 mins by scintillation counting analysis

[16] = target: Human immunodeficiency virus type 1 reverse transcriptase (Human immunodeficiency virus 1) (UniProt Q72547)
Description: Inhibition of recombinant wild type HIV-1 His-tagged reverse transcriptase p66/p51 expressed in Escherichia coli assessed as reduction in [3H]dTTP incorporation using poly(rA)/oligo(dT) as template/primer after 20 mins by scintillation counting analysis

[17] = tested on: Human immunodeficiency virus type 1 reverse transcriptase (Human immunodeficiency virus 1), Q72547 [L100I]
[18] = tested on: Human immunodeficiency virus type 1 reverse transcriptase (Human immunodeficiency virus 1), Q72547 [Y181I]

SMILES	Ratio [1]	Ratio EC50 [2]	EC50 [3] [nM]	EC50 [4] [nM]	Ratio EC50 [5]	EC50 [6] [nM]	Ratio [7]	EC50 [8] [nM]	Ratio EC50 [9]	Ratio EC50 [10]	Ratio [11]	CC50 at 120 h [12] [nM]	EC50 [13] [nM]	selectivity ratio [14]	ID50 [15] [nM]	ID50 [16] [nM]	ID50 [17] [nM]	ID50 [18] [nM]
CCCN(C)c1nc(C(C)c2c(F)cccc2F)c(C)c(=O)[nH]1 (stereo not drawn)	6	26	49	17	9	7	6	16	4	9	40	> 78000	1.9	> 41000				
CCC(C)Sc1nc(O)c(C)c(C(C)c2c(F)cccc2F)n1 (stereo not drawn)						79			88			> 3000		> 3330	1700	31	670	
Cc1cc(C)c(Nc2ccnc(Nc3ccc(C#N)cc3)n2)c(C)c1 [DAPIVIRINE]						6		2.2					0.6					
Cc1c(C(C)c2c(F)cccc2Cl)nc(SC2CCCC2)[nH]c1=O (stereo not drawn)						68			2267			> 15000		> 500000	1300	11	120	
Cc1c(O)nc(SC(C)C)nc1C(C)c1c(F)cccc1F (stereo not drawn)						145			145						580	3	280	
CCCNc1nc(C(C)c2c(F)cccc2F)c(C)c(=O)[nH]1 (stereo not drawn)	12		> 10000	60		90	8		30	20	125	35000		11700	470	40	310	5020
COC(c1nc(SC2CCCC2)[nH]c(=O)c1C)c1c(F)cccc1Cl (stereo not drawn)	21	1229	860	160	100	12	329	70	17	229	543	36800	0.7	52600	150	7	2300	3800
CCC(c1nc(SC2CCCC2)[nH]c(=O)c1C)c1c(F)cccc1F (stereo not drawn)						750			68	100		30000		2730	380	5	110	
COC(c1nc(SC2CCCC2)[nH]c(=O)c1C)c1c(F)cccc1F (stereo not drawn)	19	110	3200	2700	97	840	65	2800	29	93	41	34300	29		260	14	910	570
CCCNc1nc(C(OC)c2c(F)cccc2F)c(C)c(=O)[nH]1 (stereo not drawn)	5	700	3500	98	6	16	24	32	3	20	42	81400	5	16300	220	40	980	1700
COC(c1nc(SC(C)C)[nH]c(=O)c1C)c1c(F)cccc1F (stereo not drawn)	16	171	2900	560	65	520	71	1100	31	33	1140	> 25000	17	> 1470	130	8	570	9100
CCC(C)Sc1nc(C(CC)c2c(F)cccc2F)c(C)c(=O)[nH]1 (stereo not drawn)						150			187			> 3000		> 3750	140	6	48	
COC(c1nc(NC(C)C)[nH]c(=O)c1C)c1c(F)cccc1F (stereo not drawn)	11	471	6600	140	16	70	19	230	5	10	33	> 81400	14	> 5810	620	57	1100	1900
CCC(c1nc(SC(C)C)[nH]c(=O)c1C)c1c(F)cccc1F (stereo not drawn)						280			70			> 30000		> 7500	310	4	210	
Cc1c(C(C)c2c(F)cccc2F)nc(NC(C)C)[nH]c1=O (stereo not drawn)	11		> 10000	350	44	150	7	890	7	17	101	200000	20	10000	400	35	250	3520
CCC(C)Sc1nc(C(OC)c2c(F)cccc2F)c(C)c(=O)[nH]1 (stereo not drawn)	500	311	2800	370	178	240	93	1600	27	41	1800	27200	9	3020	1500	3	280	5400
COC(c1nc(NC(C)C)[nH]c(=O)c1C)c1c(Cl)cccc1Cl (stereo not drawn)	15	127	12200	5800	31		11	3000		60	23	62500	96	651	5200	340	3800	7800
COC(c1nc(NC2CCCC2)[nH]c(=O)c1C)c1c(Cl)cccc1Cl (stereo not drawn)	10	540	5400	1400	84		34	840		140	43	34000	10	3400	540	56	1900	2400
CO[C@@H](c1nc(SC(C)C)[nH]c(=O)c1C)c1c(F)cccc1Cl	17	11	1	0.9	10		200	0.6		10	550	> 65000	0.09	> 722000	35	2	400	1100
Cc1c(C(C)c2c(F)cccc2F)nc(SC2CCCC2)[nH]c1=O (stereo not drawn)	60					120	60	230	120	100	180	> 3000	1	> 3000	300	5	300	900
